Data: article PMC10244622, “Concerted suppressive effects of carisbamate, an anti-epileptic alkyl-carbamate drug, on voltage-gated Na^+ and hyperpolarization-activated cation currents” (Frontiers in Cellular Neuroscience, 2023)

Legend:
[1] = test system: T1, HCN channel (hyperpolarization-activated cation current, Ih, in GH3 cells); test: whole-cell patch clamp; type: cell-based; conditions: Ih at end of 2-s step from -40 to -110 mV; Ca2+-free Tyrode with 1 μM TTX; pH 7.4; 20-25 °C; native GH3 cells
T1 construct: gene Hcn2; native whole-cell current in GH3 pituitary cells; homo- or mixed HCN2+HCN3; PDB 5V4S is only a docking model

[2] = test system: T2, voltage-gated Na^+ (NaV) channels (INa in GH3 cells); test: whole-cell patch clamp; type: cell-based; conditions: transient (peak) INa(T); 30-ms step from -100 to -10 mV; Ca2+-free Tyrode, 10 mM TEA, 0.5 mM CdCl2; pH 7.4; 20-25 °C; native GH3 cells
T2 construct: gene Scn1a; native whole-cell current in GH3 pituitary cells; hNaV1.7 only docked

NC(=O)OC[C@@H](O)c1ccccc1Cl [CRS, [(2S)-2-(2-chlorophenyl)-2-hydroxyethyl] carbamate] was tested, and the IC50 [1] was 38 µM and the IC50 [2] was 56.4 µM.
